Measurements: PubChem BioAssay (NCI)
“And” between values parts separate entries of the source, which are not always exact repeats. Equal entries are not always repeated.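 Exposure lasted 48 hours, with cells grown in 96-well plates and compounds tested at five concentrations. Abbreviation: GI50, concentration required for 50% inhibition of growth. Definition used: TGI = concentration required for complete inhibition of growth.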

How the values were obtained:
Test in all cases: DTP human tumour cell line panel, 48 h
SW-620 colon = system: SW-620 colon
COLO 205 colon = system: COLO 205 colon
UO-31 renal = system: UO-31 renal
OVCAR-8 ovarian = system: OVCAR-8 ovarian
SNB-75 CNS = system: SNB-75 CNS
MDA-MB-231 breast = system: MDA-MB-231 breast
KM12 colon = system: KM12 colon
SF-268 CNS = system: SF-268 CNS
SF-295 CNS = system: SF-295 CNS
HS 578T breast = system: HS 578T breast

SMILES | GI50 (SW-620 colon) | TGI (SW-620 colon) | GI50 (COLO 205 colon) | TGI (COLO 205 colon) | GI50 (UO-31 renal) | TGI (UO-31 renal) | GI50 (OVCAR-8 ovarian) | TGI (OVCAR-8 ovarian) | GI50 (SNB-75 CNS) | TGI (SNB-75 CNS) | GI50 (MDA-MB-231 breast) | TGI (MDA-MB-231 breast) | GI50 (KM12 colon) | TGI (KM12 colon) | GI50 (SF-268 CNS) | TGI (SF-268 CNS) | GI50 (SF-295 CNS) | TGI (SF-295 CNS) | GI50 (HS 578T breast) | TGI (HS 578T breast)
Nc1nc(N)c2cc(Sc3ccc(Cl)cc3)ccc2n1 | 0.306 µM | 1.63 µM | 1.28 µM | 2.83 µM | 2.43 µM | 16.1 µM | 0.961 µM | 2.61 µM | 5.89 µM | 18.7 µM | 1.72 µM | 4.21 µM | 1.34 µM | 4.32 µM | 0.898 µM | 18 µM | 0.63 µM | 15.2 µM | 1.72 µM | 12.4 µM
COC(=O)CC12CC(NC(=O)c3csc([C@@H](C[C@H](C(C)C)N(C)C(=O)[C@@H](NC(=O)[C@H]4CCCCN4C)C(C)C)OC(C)=O)n3)(C1)C2 | 0.0035 µM and 0.0102 µM | > 33.3 µM | 0.0027 µM and 0.00684 µM | 0.00961 µM and 0.0401 µM | – | > 33.3 µM | 0.00545 µM and 0.0131 µM | > 33.3 µM | 0.00265 µM | – | 0.00661 µM and 0.0152 µM | 0.0958 µM and 0.515 µM | 0.00441 µM and 0.00939 µM | > 33.3 µM | 0.0074 µM and 0.0204 µM | > 33.3 µM | 0.00327 µM and 0.00942 µM | > 33.3 µM | 0.00396 µM and 0.00902 µM | > 33.3 µM
COc1ccc(-c2nc(Nc3ccc(F)cc3)nc(Nc3ccc4c(c3)nc(C)n4Cc3ccccc3)n2)cc1 | 5.25 µM | > 100 µM | 2.28 µM | 5.95 µM | 3.53 µM | > 100 µM | 3.45 µM | > 100 µM | 2.83 µM | > 100 µM | 3.64 µM | 18.9 µM | 3.55 µM | 33.8 µM | 7.25 µM | > 100 µM | 3.73 µM | > 100 µM | 6.63 µM | > 100 µM
Nc1ncnc2occ(-c3ccc(NC(=O)Nc4cc(C(F)(F)F)ccc4F)cc3)c12 | 7.71 µM and 4.14 µM | 23.7 µM and 12.1 µM | 5.27 µM and 3.74 µM | 9.88 µM and 7.13 µM | 4.72 µM and 1.48 µM | 14.1 µM and 7.88 µM | 4.76 µM and 1.95 µM | 16.6 µM and 5.76 µM | 3.87 µM and 3.93 µM | 9.56 µM and 10.3 µM | 7.93 µM and 3.8 µM | 23.1 µM and 12.4 µM | 0.133 µM and 0.115 µM | 4.81 µM and 3.08 µM | 4.68 µM and 2.34 µM | 12.5 µM and 8.02 µM | 4.97 µM and 3.23 µM | 16.3 µM and 9.43 µM | 0.773 µM and 2.09 µM | 9.1 µM and 9.04 µM
Fc1ccc(-c2nn3c(COc4ccccc4Cl)nnc3s2)cc1Oc1ccccc1 | > 100 µM | > 100 µM | 46.4 µM | > 100 µM | 27.1 µM | > 100 µM | 49.9 µM | > 100 µM | 30.7 µM | 93.7 µM | 17.8 µM | 45.6 µM | 43.1 µM | > 100 µM | 44.8 µM | > 100 µM | 18.9 µM | 50.9 µM | 47.6 µM | > 100 µM
CC12OC(C(=O)C13CC3)C1C(=O)c3cccc(O)c3C(=O)C12 (stereo not drawn) | 4.41 µM | > 100 µM | 15.5 µM | > 96.2 µM | 23.1 µM | > 100 µM | 8.12 µM | > 38.5 µM | 12.5 µM | > 37.4 µM | 2.43 µM | 16.3 µM | 13.8 µM | 38.1 µM | 6.08 µM | > 68.5 µM | 2.68 µM | 22.6 µM | 25.8 µM | 82.1 µM
COc1ncnn2ccc(-c3cnc4nc(C)n(Cc5nnc(C(C)F)o5)c4c3)c12 (stereo not drawn) | 0.0511 µM | > 100 µM | 0.11 µM | 0.468 µM | – | – | 0.245 µM | > 100 µM | 0.191 µM | 1.75 µM | 0.278 µM | 27 µM | 0.116 µM | > 100 µM | 0.526 µM | > 80.5 µM | 0.326 µM | 8.04 µM | 0.265 µM | 7.21 µM
Nc1n[nH]c2ccc([C@H]3[C@@H]4C5CCC(C5)[C@@H]4c4c(ccc5[nH]ncc45)N3S(=O)(=O)C3CC3)cc12 (stereo partly drawn) | 0.203 µM | > 33.7 µM | 0.193 µM | 6.31 µM | 0.298 µM | 29.2 µM | 0.213 µM | > 41.1 µM | 0.138 µM | 2.42 µM | 0.322 µM | 12.4 µM | 0.199 µM | 6.32 µM | 0.618 µM | 14 µM | 0.136 µM | 1.32 µM | 0.17 µM | 3.31 µM
NS(=O)(=O)c1ccc(N=Nc2c(O)[nH]c3cccc(CCc4ccncc4)c23)cc1 | > 25 µM | > 25 µM | > 25 µM | > 25 µM | > 25 µM | > 25 µM | > 25 µM | > 25 µM | > 25 µM | > 25 µM | > 25 µM | > 25 µM | > 25 µM | > 25 µM | > 25 µM | > 25 µM | > 25 µM | > 25 µM | > 25 µM | > 25 µM
Cc1cccc2c1NC(=O)[C@@H](NC(=O)[C@H](CCC(F)(F)F)[C@H](CCC(F)(F)F)C(N)=O)N=C2c1cccc(F)c1 | > 100 µM | > 100 µM | > 100 µM | > 100 µM | > 100 µM | > 100 µM | 30.5 µM | > 100 µM | 10.8 µM | 32.1 µM | 18.2 µM | 59.1 µM | > 100 µM | > 100 µM | 23.2 µM | 70 µM | 25.8 µM | > 100 µM | 20.4 µM | 64 µM
CCCC(c1cc(C(C)(C)C)c(O)cc1C)c1cc(C(C)(C)C)c(O)cc1C | – | 10.2 µM | – | 5.4 µM | – | 11.2 µM | – | 12.9 µM | – | – | – | 9.57 µM | – | 11.1 µM | – | 15.1 µM | – | 6.11 µM | – | 9.79 µM
CO[C@@H]1[C@H](N(C)C(=O)c2ccccc2)C[C@@H]2O[C@]1(C)n1c3ccccc3c3c4c(c5c6ccccc6n2c5c31)C(=O)NC4=O | 0.732 µM | > 100 µM | 0.398 µM | > 100 µM | 0.211 µM | 1.46 µM | 94.6 µM | > 100 µM | – | – | 0.48 µM | > 100 µM | 0.391 µM | > 100 µM | 0.763 µM | > 100 µM | 1.45 µM | > 100 µM | 0.461 µM | > 100 µM
CC(=O)NS(=O)(=O)c1ccc(-n2nc(-c3ccccc3)cc2-c2cc(O)ccc2O)cc1 | > 100 µM | > 100 µM | 44 µM | > 100 µM | > 100 µM | > 100 µM | > 100 µM | > 100 µM | – | – | 39.2 µM | > 100 µM | > 100 µM | > 100 µM | > 100 µM | > 100 µM | > 100 µM | > 100 µM | > 100 µM | > 100 µM
CCOC(=O)Cc1csc(Nc2nc(O)c(C3=c4ccccc4=NC3=O)s2)n1 | 68.5 µM | > 100 µM | 47.1 µM | > 100 µM | 23 µM | 51.6 µM | 43.7 µM | > 100 µM | – | – | 29.1 µM | 72.1 µM | 20.4 µM | 68.9 µM | 34.6 µM | > 100 µM | 32.1 µM | 75.3 µM | 47 µM | > 100 µM
COC(=O)Nc1nc2ccc(C(=O)C3CC3)cc2[nH]1 | 0.297 µM | > 100 µM | 0.392 µM | 10.4 µM | 3.21 µM | > 63.1 µM | 0.668 µM | > 100 µM | – | – | 1.28 µM | > 46.1 µM | 0.283 µM | 1.68 µM | 0.573 µM | 31.3 µM | 0.248 µM | – | 0.28 µM | 0.853 µM
O=C(CSc1nc2ccc([N+](=O)[O-])cc2[nH]1)Nc1ccc([N+](=O)[O-])cc1 | 3.24 µM | 17.6 µM | – | – | 1.4 µM | 8.18 µM | 2.79 µM | > 35.7 µM | 1.84 µM | 6.95 µM | 2.08 µM | 6.31 µM | 2.65 µM | 12.9 µM | 2.72 µM | 14.5 µM | 2.03 µM | 6.43 µM | 2.31 µM | 10.2 µM
CCOC(=O)c1cc2c(OC)cc(OC)cc2oc1=O | – | > 100 µM | – | > 100 µM | – | – | – | > 100 µM | – | > 100 µM | – | > 100 µM | – | – | – | > 100 µM | – | > 100 µM | – | > 100 µM
Clc1ccc(Nc2ncnc3ccccc23)cc1 | > 100 µM | > 100 µM | 68.9 µM | > 100 µM | 61 µM | > 100 µM | 59.2 µM | > 100 µM | – | – | > 100 µM | > 100 µM | 47.7 µM | > 100 µM | 38.7 µM | > 100 µM | 37.9 µM | > 100 µM | 37.9 µM | > 100 µM
O=C(NC(=S)Nc1ccc(-c2nc3ccccc3[nH]2)cc1)c1ccc2ccccc2c1 | 4.2 µM | > 100 µM | 4.98 µM | 46.5 µM | 1.92 µM | 3.65 µM | 4.11 µM | > 100 µM | 1.46 µM | 3.38 µM | 2.46 µM | 7.15 µM | 6.49 µM | > 100 µM | > 100 µM | > 100 µM | – | – | 3.09 µM | 9.94 µM
